Here are results for one compound from patent publication US12577238B2, “Compositions and methods for modulating inflammatory and degenerative disorder” (University of Southern California, priority 2018, dated 2026).

The subject of experiment [1] is Col10a1-RFP reporter in limb bud mesenchymal cells. Briefly: High throughput screen, Col10a1 reporter in BMP-4 stimulated limb mesenchymal cells. The format is cell-based, mouse. The settings on record: ~170,000 compounds screened. As for the experimental part:
The gp130 co-receptor LIFR is expressed on a subset of superficial chondrocytes throughout human ontogeny. […] Given the known (and mostly detrimental roles) of IL-6 family cytokines on articular chondrocytes, a high throughput screen was performed to identify small molecules that could potentially modulate gp130 signaling. In adult mice, IL-6/gp130 signaling drives Col10a1 expression and hypertrophy, which has been strongly associated with OA progression; ˜170,000 compounds were thus screened for their ability to prevent increases in Col10-mCherry fluorescence in mouse limb mesenchymal cells stimulated with BMP-4, a strong driver of hypertrophy (FIG. 2).

In experiment [2] the test system is human fetal articular chondrocytes. The experiment can be described thus: Alkaline phosphatase / hypertrophy in fetal articular chondrocytes. Format: cell-based.
The subject of experiment [3] is adult pig articular chondrocytes. The experiment can be described thus: Western blot of signaling proteins (pSTAT3, MYC, MAPK, AKT, NF-κB) in pig articular chondrocytes. Format: cell-based. The procedure: (A) Class 1 molecules (marked by red arrows) activate STAT3 and MYC signaling pathways wile Class 2 molecules (blue arrows) have no stimulatory effects on STAT3 and MYC signaling in chondrocytes as determined by western blot analysis. (B) Structures of the most prominent Class 1 and Class 2 molecules. […] All drugs were tested at 10 μM and assessed using Western Blot.
All drugs tested at 10 μM and assessed using Western Blot.
To begin to address the mechanism of action of RCGD 423, adult pig chondrocytes were incubated with the drug, IL-6 family cytokines or the pro-catabolic cytokines TNF-α and IL-1β and measured levels of various proteins downstream of these cytokines that are known to drive catabolic responses (FIG. 3).
Firstly, RCGD 423 was a hit from a library; this made the depth of the discovery surrounding the technology less comprehensive. Additionally, the physical properties of RCGD 423 (solubility, potency, functional groups) could be improved. Significant gains in these areas could potentially result in a first-in-class injectable for the treatment of post-traumatic OA. Moreover, the potential risks associated with promoting MYC stabilization and proliferation in gp130^+ cells as well as large increases in active STAT3 protein was of concern. […] These compounds were then screened in adult pig articular chondrocytes and cartilage explants, seeking compounds that could inhibit the catabolic effects of OSM but not drive increases in MYC and pSTAT3 protein levels. […] Together, these preliminary data identify CX-011 (B8) as a highly anti-inflammatory, anti-catabolic alternative to RCGD 423, with increased “drug-like” properties and reduced potential molecular liabilities.

The test system of experiment [4] is gp130. Briefly: gp130 null Ba/F3 cells transfected with full-length gp130 or ΔD2 mutant. Format: cell-based. The following applies: WT gp130 vs ΔD2 mutant. The procedure:
(§1) Based on this, it was hypothesized that RCGD 423 acts through gp130 by promoting stable homodimers in the absence of ligand. To confirm that RCGD 423 acts through gp130, the gp130 null cell line Ba/F3 cells was used. Ba/F3 cells were transfected with either full-length gp130 or a mutant gp130 lacking domain 2 (ΔD2), which contains the predicted binding site for RCGD 423 (FIG. 7). […] To verify the specificity of RCGD 423 in vivo, the compound was injected into rat knees in the presence of the small molecule gp130 inhibitor SC144 or a blocking antibody specific for domain 2 of gp130. […] The ability of RCGD 423 to act via inducing formation of gp130 homodimers was then examined by expressing tagged versions of gp130 in 293T cells. In this system, only homodimeric complexes can contain both tagged versions of gp130 (FIG. 9).

In experiment [5] the target is T1, gp130 homodimers (Homo sapiens, UniProt P40189).
T1 construct: Myc; expressed in transfected cells; host or cells: 293T
T1 sequence (P40189 23-918) 1: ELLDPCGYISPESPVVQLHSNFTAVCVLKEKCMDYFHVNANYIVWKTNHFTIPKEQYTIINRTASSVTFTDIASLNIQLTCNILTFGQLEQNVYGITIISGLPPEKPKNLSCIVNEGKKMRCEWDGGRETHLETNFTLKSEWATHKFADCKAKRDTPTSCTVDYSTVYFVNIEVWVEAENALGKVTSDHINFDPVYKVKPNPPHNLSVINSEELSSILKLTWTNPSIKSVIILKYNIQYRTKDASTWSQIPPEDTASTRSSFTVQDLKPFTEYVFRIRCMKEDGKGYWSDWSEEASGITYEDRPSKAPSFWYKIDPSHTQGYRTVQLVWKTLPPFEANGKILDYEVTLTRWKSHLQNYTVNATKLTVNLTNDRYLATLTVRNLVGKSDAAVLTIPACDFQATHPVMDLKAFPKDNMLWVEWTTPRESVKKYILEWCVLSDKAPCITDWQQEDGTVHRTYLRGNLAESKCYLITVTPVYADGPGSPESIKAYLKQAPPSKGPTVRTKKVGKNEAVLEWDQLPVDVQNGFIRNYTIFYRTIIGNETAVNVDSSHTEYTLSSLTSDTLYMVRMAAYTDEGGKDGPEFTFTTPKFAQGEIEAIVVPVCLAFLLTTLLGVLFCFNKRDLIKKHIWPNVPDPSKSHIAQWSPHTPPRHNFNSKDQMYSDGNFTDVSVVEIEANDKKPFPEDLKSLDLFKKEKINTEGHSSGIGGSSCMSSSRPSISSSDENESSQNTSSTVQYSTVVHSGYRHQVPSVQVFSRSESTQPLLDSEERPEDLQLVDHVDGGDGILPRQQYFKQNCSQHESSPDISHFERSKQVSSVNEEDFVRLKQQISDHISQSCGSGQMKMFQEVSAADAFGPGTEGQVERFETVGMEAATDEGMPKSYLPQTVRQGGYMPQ
T1 sequence (P40189 23-918) 2: T1 sequence (P40189 23-918) 1
The experiment can be described thus: Tagged gp130 homodimer detection in 293T cells. Format: cell-based. The following applies: tagged gp130 in 293T cells. The procedure:
as §1

The target of experiment [6] is T2, gp130-IL-6R complexes (Homo sapiens, UniProt P40189).
T2 construct: Flag; expressed in transfected cells; host or cells: adult human articular chondrocytes
T2 sequence (P40189 23-918): T1 sequence (P40189 23-918) 1
The experiment can be described thus: Receptor competition, gp130-Flag pull-down, IL-6R. The format is cell-based. The following applies: in the presence of IL-6. As for the experimental part: Adult human chondrocytes transfected with gp130-Flag were incubated with various concentrations of RCGD 423 in the presence of IL-6 or OSM; levels of immoprecipitated IL-6R or OSMR were used to calculate the dissociation constant (Kd).
This property would be of great interest due to the pro-inflammatory and pro-catabolic effects of these cytokines in the joint space. […] To assess whether RCGD 423 could directly compete for gp130 occupancy, human adult articular chondrocytes were transfected with tagged gp130 and then pulled down associated proteins±RCGD 423 and/or IL-6.

Experiment [7] deals with adult human synoviocytes. The experiment can be described thus: ERK and NF-κB downstream of OSM and IL-6 in synoviocytes. Format: cell-based. The procedure:
(§2) Accordingly, the ability of RCGD 423 to suppress signaling downstream of IL-6 and OSM in synoviocytes and peripheral blood mononuclear cells was assessed (FIG. 14).

For experiment [8], the system named is adult human PBMCs. The experiment can be described thus: ERK and NF-κB downstream of OSM and IL-6 in PBMCs. The format is cell-based. As for the experimental part:
as §2

Entries after “also recorded” stand apart in the source; their conditions may differ.

As to `Brc1ccc(Nc2nc(-c3ccccc3)cs2)cc1` [RCGD 423], the “ability to prevent increases in Col10-mCherry fluorescence (Col10a1 reporter)” value in experiment [1] was “primary hit”. The “increases in alkaline phosphatase, a marker of hypertrophy” value in experiment [2] was “could prevent increases in alkaline phosphatase; also recorded: ability of the compound to inhibit hypertrophy was confirmed”. Also, in experiment [3] (Western blot, analogs at 10 μM), the “levels of active STAT3 (pSTAT3) and MYC proteins” value was “increased levels of active STAT3 and MYC proteins; also recorded: shared increase in active STAT3 (pSTAT3) and MYC proteins”. Besides, in experiment [3] (adult pig articular chondrocytes), the “activation of the MAPK, AKT and NF-κB pathways” value is “did not evidence the same result; also recorded: does not”. Moreover, the “gp130 signaling in gp130−/− Ba/F3 cells” value in experiment [4] is “full-length gp130 is required for the activity of RCGD 423; also recorded: only increase gp130 signaling in the presence of RCGD 423 and WT gp130”. Also, the “detection of gp130 homodimers (gp130-Myc)” value in experiment [5] is given as “only in the presence of RCGD 423 could gp130 homodimers be detected; also recorded: gp130-Myc was only detectable in the presence of RCGD 423”. In addition, the “gp130-IL-6R complexes / competition with IL-6R for gp130 occupancy” value in experiment [6] was “gp130-IL-6R complexes were significantly reduced; also recorded: directly competes with OSMR and IL-6R for gp130 occupancy”. Besides, the “increases in ERK and NF-κB levels downstream of OSM and IL-6” value in experiment [7] is “inhibits increases in ERK and NF-κB levels”; in experiment [8], “inhibits increases in ERK and NF-κB levels”.
